Laboratory results taken from patent US20080095713A1, “Method of Tumour Imaging” (priority 2004, published 2008).

Experiments:
[1] = T1 relaxation of ^13C-pyruvate in human full blood; type: physicochemical; conditions: human full blood at 37° C.
Text: The amount of alanine, bicarbonate and lactate is dependent on the metabolic status of the tissue under investigation.

[2] = DNP polarisation, dissolution and liquid-state ^13C-NMR assessment of polarisation; type: physicochemical; conditions: 1.2 K, 3.35 T
Method: A 20 mM solution was prepared by dissolving 5.0 mg of the radical of Example 1 in ^13C1-pyruvic acid (164 μl). The sample was mixed to homogeneity and an aliquot of the solution (41 mg) was placed in a sample cup and inserted in the DNP polariser.
The sample was polarised under DNP conditions at 1.2 K in a 3.35 T magnetic field under irradiation with microwave (93.950 GHz). After 2 hours the polarisation was stopped and the sample was dissolved using a dissolution device according to WO-A-02/37132 in an aqueous solution of sodium hydroxide and tris(hydroxymethyl)-aminomethane (TRIS) to provide a neutral solution of hyperpolarized sodium^13C1-pyruvate. The dissolved sample was rapidly analysed with ^13C-NMR to assess the polarisation and a 19.0 % ^13C polarisation was obtained.
A 15 mM solution was prepared by dissolving the radical of Example 1 (209.1 mg) in a mixture of ^13C1-pyruvic acid (553 mg) and unlabelled pyruvic acid (10.505 g). […]
The sample was polarised under DNP conditions at 1.2 K in a 3.35 T magnetic field under irradiation with microwave (93.950 GHz). […] The filtered solution was rapidly analysed with ^13C-NMR to assess the polarisation, 16.5% ^13C polarisation was obtained. The residual radical concentration was subsequently analysed with a UV spectrophotometer at 469 nm and was determined to be below the detection limit of 0.1 μM.

[3] = Properties of the injected ^13C1-pyruvate composition at time of injection; type: physicochemical
Text: The frequency calculated positioned the MR signal arising from ^13C1-alanine on resonance with ^13C1-lactate on the left and ^13C1-pyruvate resonating on the right of ^13C1-alanine. An unlocalised MR spectroscopy sequence was run to ensure that the 13C-MR coil and the system MR frequency had been set up correctly. The ^13C-image location was positioned to cover the tumour (slice thickness 10 mm, in plane pixel size 5×5 mm^2). In the reconstruction phase, the image data was zero-filled to result in 2.5×2.5×10 mm^3 resolution. ^13C1-pyruvate in TRIS buffer (90 mM) was injected in a dose of 10 ml/kg during a period of 12 s with a minimum volume of 2 ml into the tail vein and 30 s after the start of the injection (i.e. 18 s after finishing the injection), the chemical shift ^13C-MR sequence was started.
In total 30 different tumours were imaged in 18 rats. 1 rat failed and 3 tumours failed the biological criteria described in the preceding paragraph 5.5. […] The average polarisation of ^13C1-pyruvate at the time of injection was 21.2±2.9% (mean ±SD) and the pH was 8.08±0.14 (mean±SD).

[4] = system: R3230AC rat mammary adenocarcinoma; test: In vivo ^13C-MR tumour imaging using hyperpolarised ^13C-pyruvate
Method: R3230AC is a rat mammary adenocarcinoma that can be maintained in female Fischer 344 rats. To establish the animal tumour model, a frozen vial of R32030 cells containing RPMI 1640, 10% FBS and 10% DMSO was rapidly thawed in 37° C. Thereafter, the cell solution was transferred to FBS and increasing volumes of RPMI 1640 were added. Finally, the cell suspension was transferred to a 25 cm^2 growth flask and put into an incubator at 37° C., 5% CO2. Growth media were changed every other day. At the day of rat infection, removal of cells was carried out either by mechanical force or by means of trypsin. Cells were washed using phosphate buffer lacking calcium and magnesium. Trypsin (0.05% trypsin in 0.02% EDTA) was added for 2-5 min. Then, 5 ml FBS was added and the cells were transferred into a beaker containing RPMI 1640 with FCS and antibiotics (100 IU/ml penicillin, 100 IU/ml streptomycin and 2.5 μg/ml amphotericin B). The cell solution was centrifugated and the cell pellet was resuspended in 20 ml RPMI with FBS and antibiotics, centrifugation and resuspension was repeated. The cells were then aliquoted to vials containing 4×10^6 cells/ml RPMI 1640. To obtain donor tumours, female Fischer 344 rats (Charles River, 180-200 g) were anaesthetised and 0.3 ml of the cell suspension was subcutaneously injected in the inguinal region on both sides. 15 and 22 days later, pieces of tumour were prepared as described in F. A. Burgener et al., Invest Radiol 22/6 (1987), 472-478; S. Saini et al., J. Magn. Reson. 129/1 (1997), 35-43). Two incisions were made on the ventral abdomen of recipient female Fischer rats. A tumour piece was inserted into each pocket and the incisions were closed. Rats were brought to imaging 12-14 days after tumour engrafting.
Weighed rats were anaesthetised using isoflurane (2-3%) and kept on a heated table to ensure a body temperature of about 37° C. A catheter was introduced into the tail vein and into the arteria carotis communis sinistra. The rats were transported to the MR machine and placed on a home-built pad that was heated to approx. 37° C. by means of circulating FC-104 Fluorinert. This liquid will not give rise to background signals in ^1H- and ^13C-MR imaging. Anaesthesia was continued by means of 1-2% isoflurane delivered via a long tube to an open-breathing system at a rate of 0.4 L/min. […]
Based on the proton frequency found by the MR system the MR frequency for ^13C1-alanine was calculated according to the following equation: […]
The frequency calculated positioned the MR signal arising from ^13C1-alanine on resonance with ^13C1-lactate on the left and ^13C1-pyruvate resonating on the right of ^13C1-alanine. […]

[5] = DNP polarisation, solid-state ^13C-NMR (enhanced vs thermal equilibrium signal); type: physicochemical; conditions: 20 mM Tris(8-carboxy-2,2,6,6-tetra(hydroxyethoxy)methyl-benzo[1,2-d:4,5-d′]bis(1,3)dithiole-4-yl)methyl sodium salt, 1.2 K, 3.35 T, 93.950 GHz
Method: A 20 mM solution was prepared by dissolving Tris(8-carboxy-2,2,6,6-tetra(hydroxyethoxy)methyl-benzo [1,2-d:4,5-d′]-bis-(1,3)-dithiole-4-yl)methyl sodium salt in ^13C1-pyruvic acid (83.1 mg). The sample was mixed to homogeneity, placed in a sample cup and inserted in the DNP polariser. The sample was polarised under DNP conditions at 1.2 K in a 3.35 T magnetic field under irradiation with microwave (93.950 GHz). The ^13C-NMR signal from the sample was acquired using a Varian Inova-200 NMR spectrometer. The DNP enhancement was calculated from a measurement of the thermal equilibrium ^13C-NMR signal and the enhanced NMR signal. 16% ^13C polarisation was obtained.

[6] = rat, i.v. tail vein 10 ml/kg, imaging 30 s after start of injection

With CC(=O)[13C](=O)O [^13C-pyruvate] the T1 relaxation [1] was “about 42 s”.

In the case of CC(=O)[13C](=O)[O-].[Na+] [sodium ^13C1-pyruvate], the “^13C polarisation” value ([2]; 15 mM radical of Example 1 in ^13C1-pyruvic acid/unlabelled pyruvic acid, 4 hours, dissolved NaOH/TRIS, 0.5 M pyruvate, radical removed on C18 column) is reported as 16.5% and the “^13C polarisation” value ([2]; 20 mM radical of Example 1 in ^13C1-pyruvic acid, 93.950 GHz, 2 hours, dissolved in NaOH/TRIS, liquid ^13C-NMR) is reported as 19.0%.

With CC(=O)[13C](=O)O [^13C1-pyruvate] the “average polarisation at the time of injection” value ([3]; mean ±SD, ^13C1-pyruvate in TRIS buffer (90 mM)) was 21.2±2.9%, the pH ([3]; mean±SD, injected composition) was 8.08±0.14 and the “overall rate of success” value ([4]; discrimination of tumour and healthy tissue, 26 out of 26 tumours) was 100%. For the same molecule, the “metabolic contrast in the tumour area, lactate signal” value [4, 6] was 24 out of 26, the “metabolic contrast in the tumour area, lactate signal, alanine corrected” value [4, 6] was 26 out of 26 and the “metabolic contrast in the tumour area, lactate signal, pyruvate corrected” value [4, 6] was 26 out of 26.

For CC(=O)[13C](=O)O [^13C1-pyruvic acid], the “^13C polarisation” value [5] was 16%.
